Calls of active or inactive are those of the source.
Tests used:
[1] = target: T1, E3 ubiquitin-protein ligase XIAP (Homo sapiens, UniProt P98170); assay: XIAP antagonists, biochemical, IAP family, fluorescence polarization (AID 1018); type: functional
[2] = target: T1, E3 ubiquitin-protein ligase XIAP; assay: Counter Screen using XIAP-Bir3 for Chemical Antagonists of Bir1/2 domains of IAP-family anti-apoptotic proteins. [Related pubchem assays (depositor defined):AID1018, AID1449, AID1514, AID1638, AID1749, AID1750, AID488957, AID488963]
[3] = target: Delta-type opioid receptor (Homo sapiens, UniProt P41143); assay: SAR Analysis of Antagonists of the DOR Receptor using an Image-Based Assay - Set 3. [Related pubchem assays (depositor defined):AID1777, AID1785]; type: functional;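 note: U2OS cells expressing DOR1 and beta-arrestin GFP stimulated with 100 nM SNC80; imaging of GFP-tagged beta-arrestin moving into spots after receptor activation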
Delta-type opioid receptor, sequence (P41143 whole entry): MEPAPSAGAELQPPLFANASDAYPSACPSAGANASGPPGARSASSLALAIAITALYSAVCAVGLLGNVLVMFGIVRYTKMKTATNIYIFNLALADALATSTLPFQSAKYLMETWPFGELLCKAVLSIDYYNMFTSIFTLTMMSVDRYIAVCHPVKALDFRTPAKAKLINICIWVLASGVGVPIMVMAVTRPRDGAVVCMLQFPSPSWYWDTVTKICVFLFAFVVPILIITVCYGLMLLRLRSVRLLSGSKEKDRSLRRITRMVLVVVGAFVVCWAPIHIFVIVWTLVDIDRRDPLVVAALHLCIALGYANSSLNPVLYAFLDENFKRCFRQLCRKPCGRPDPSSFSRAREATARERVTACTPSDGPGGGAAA

[4] = target: T2, Kappa-type opioid receptor (Homo sapiens, UniProt P41145); assay: SAR analysis of Antagonists of the Kappa Opioid Receptor (KOR) using an Image-Based Assay - Set 3. [Related pubchem assays (depositor defined):AID1777, AID1785]; type: functional
T2 sequence (P41145 whole entry): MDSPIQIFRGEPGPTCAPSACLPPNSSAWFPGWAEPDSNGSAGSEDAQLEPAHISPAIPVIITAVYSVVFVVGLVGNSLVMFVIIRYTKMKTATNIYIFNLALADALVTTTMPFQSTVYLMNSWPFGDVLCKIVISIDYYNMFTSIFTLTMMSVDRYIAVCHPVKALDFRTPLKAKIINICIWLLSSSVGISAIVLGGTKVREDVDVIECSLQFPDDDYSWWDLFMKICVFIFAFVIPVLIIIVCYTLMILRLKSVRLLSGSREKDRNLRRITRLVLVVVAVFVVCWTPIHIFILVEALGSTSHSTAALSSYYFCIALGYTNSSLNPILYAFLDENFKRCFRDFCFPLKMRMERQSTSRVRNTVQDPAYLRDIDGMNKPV

[5] = target: T2, Kappa-type opioid receptor; assay: SAR analysis of small molecule antagonists of the kappa opioid receptor via a luminescent beta-arrestin assay - Set 3. [Related pubchem assays (depositor defined):AID1777, AID1778, AID1785, AID1786, AID1966, AID2133, AID2136, AID2285, AID2495]; type: functional
Mu-type opioid receptor = Mu-type opioid receptor (Homo sapiens, UniProt P35372); assay: SAR Analysis of Antagonists of the MOR Receptor using an Image-Based Assay - Set 3. [Related pubchem assays (depositor defined):AID1777, AID1785, AID1786, AID1966, AID2133, AID2136, AID2284, AID2285, AID2420]; type: functional
Mu-type opioid receptor, sequence (P35372 whole entry): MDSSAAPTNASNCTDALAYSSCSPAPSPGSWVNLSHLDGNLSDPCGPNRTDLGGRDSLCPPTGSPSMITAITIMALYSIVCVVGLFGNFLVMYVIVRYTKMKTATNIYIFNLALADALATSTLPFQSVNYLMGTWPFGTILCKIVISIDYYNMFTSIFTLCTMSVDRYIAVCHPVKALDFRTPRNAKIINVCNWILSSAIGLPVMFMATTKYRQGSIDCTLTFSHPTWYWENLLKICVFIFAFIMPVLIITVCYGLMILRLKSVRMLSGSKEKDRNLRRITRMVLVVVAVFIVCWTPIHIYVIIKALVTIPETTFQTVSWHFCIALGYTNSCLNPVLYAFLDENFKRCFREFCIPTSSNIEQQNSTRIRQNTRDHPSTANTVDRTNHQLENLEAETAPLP

[6] = target: T2, Kappa-type opioid receptor; assay: SAR analysis of small molecule agonists of the kappa opioid receptor via a luminescent beta-arrestin assay - Set 3. [Related pubchem assays (depositor defined):AID1777, AID1785, AID1786, AID1966, AID2133, AID2136, AID2284, AID2500]; type: functional
[7] = target: Sphingosine 1-phosphate receptor 4 (Homo sapiens, UniProt O95977); assay: Late-stage fluorescence dose response cell-based assay to identify agonists of the Sphingosine 1-Phosphate Receptor 4 (S1P4): purchased compounds EC50. [Related pubchem assays (depositor defined):AID1509, AID1523, AID1563, AID1686, AID1701, AID1801]; type: functional
Sphingosine 1-phosphate receptor 4, sequence (O95977 whole entry): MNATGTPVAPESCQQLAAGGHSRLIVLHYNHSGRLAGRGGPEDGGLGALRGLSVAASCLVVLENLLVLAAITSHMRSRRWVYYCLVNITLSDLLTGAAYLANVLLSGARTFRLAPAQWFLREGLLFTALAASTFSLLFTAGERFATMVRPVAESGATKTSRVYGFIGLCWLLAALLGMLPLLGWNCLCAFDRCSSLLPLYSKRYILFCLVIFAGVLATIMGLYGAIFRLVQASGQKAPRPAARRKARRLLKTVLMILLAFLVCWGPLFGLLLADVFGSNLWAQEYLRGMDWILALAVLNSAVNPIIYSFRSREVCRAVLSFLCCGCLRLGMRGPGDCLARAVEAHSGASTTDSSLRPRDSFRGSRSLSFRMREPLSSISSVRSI

[8] = target: Metabotropic glutamate receptor 2 (Rattus norvegicus, UniProt P31421); assay: rat mGluR2 glutamate potency shift by compounds, selectivity assay for mGluR4 modulator project, cell-based (AID 2188); type: functional
Metabotropic glutamate receptor 2, sequence (P31421 whole entry): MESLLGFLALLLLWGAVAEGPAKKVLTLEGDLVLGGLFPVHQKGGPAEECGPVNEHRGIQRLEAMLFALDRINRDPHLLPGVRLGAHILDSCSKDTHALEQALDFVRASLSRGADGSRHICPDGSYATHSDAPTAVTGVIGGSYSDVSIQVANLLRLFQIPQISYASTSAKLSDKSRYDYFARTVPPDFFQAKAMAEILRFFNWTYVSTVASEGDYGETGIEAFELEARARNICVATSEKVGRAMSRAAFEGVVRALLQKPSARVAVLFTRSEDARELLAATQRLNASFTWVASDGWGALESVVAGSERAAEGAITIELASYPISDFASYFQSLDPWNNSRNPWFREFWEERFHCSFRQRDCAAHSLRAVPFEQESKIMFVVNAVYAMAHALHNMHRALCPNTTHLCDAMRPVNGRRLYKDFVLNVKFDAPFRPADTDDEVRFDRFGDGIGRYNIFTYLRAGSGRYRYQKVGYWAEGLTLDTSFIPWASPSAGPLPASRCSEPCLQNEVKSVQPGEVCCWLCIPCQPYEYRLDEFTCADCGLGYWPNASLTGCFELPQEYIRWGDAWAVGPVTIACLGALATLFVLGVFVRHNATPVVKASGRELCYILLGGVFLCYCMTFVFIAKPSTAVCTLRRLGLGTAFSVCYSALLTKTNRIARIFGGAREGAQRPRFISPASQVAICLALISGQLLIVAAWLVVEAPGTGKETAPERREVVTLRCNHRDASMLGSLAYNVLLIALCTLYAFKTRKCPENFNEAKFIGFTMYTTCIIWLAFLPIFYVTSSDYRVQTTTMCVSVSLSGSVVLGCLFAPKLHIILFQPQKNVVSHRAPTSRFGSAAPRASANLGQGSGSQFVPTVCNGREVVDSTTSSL

[9] = target: Metabotropic glutamate receptor 1 (Rattus norvegicus, UniProt P23385); assay: Modulation of the Metabotropic Glutamate Receptor mGluR4: Selectivity at mGluR1. [Related pubchem assays (depositor defined):AID2437, AID2807]; type: functional
Metabotropic glutamate receptor 1, sequence (P23385 whole entry): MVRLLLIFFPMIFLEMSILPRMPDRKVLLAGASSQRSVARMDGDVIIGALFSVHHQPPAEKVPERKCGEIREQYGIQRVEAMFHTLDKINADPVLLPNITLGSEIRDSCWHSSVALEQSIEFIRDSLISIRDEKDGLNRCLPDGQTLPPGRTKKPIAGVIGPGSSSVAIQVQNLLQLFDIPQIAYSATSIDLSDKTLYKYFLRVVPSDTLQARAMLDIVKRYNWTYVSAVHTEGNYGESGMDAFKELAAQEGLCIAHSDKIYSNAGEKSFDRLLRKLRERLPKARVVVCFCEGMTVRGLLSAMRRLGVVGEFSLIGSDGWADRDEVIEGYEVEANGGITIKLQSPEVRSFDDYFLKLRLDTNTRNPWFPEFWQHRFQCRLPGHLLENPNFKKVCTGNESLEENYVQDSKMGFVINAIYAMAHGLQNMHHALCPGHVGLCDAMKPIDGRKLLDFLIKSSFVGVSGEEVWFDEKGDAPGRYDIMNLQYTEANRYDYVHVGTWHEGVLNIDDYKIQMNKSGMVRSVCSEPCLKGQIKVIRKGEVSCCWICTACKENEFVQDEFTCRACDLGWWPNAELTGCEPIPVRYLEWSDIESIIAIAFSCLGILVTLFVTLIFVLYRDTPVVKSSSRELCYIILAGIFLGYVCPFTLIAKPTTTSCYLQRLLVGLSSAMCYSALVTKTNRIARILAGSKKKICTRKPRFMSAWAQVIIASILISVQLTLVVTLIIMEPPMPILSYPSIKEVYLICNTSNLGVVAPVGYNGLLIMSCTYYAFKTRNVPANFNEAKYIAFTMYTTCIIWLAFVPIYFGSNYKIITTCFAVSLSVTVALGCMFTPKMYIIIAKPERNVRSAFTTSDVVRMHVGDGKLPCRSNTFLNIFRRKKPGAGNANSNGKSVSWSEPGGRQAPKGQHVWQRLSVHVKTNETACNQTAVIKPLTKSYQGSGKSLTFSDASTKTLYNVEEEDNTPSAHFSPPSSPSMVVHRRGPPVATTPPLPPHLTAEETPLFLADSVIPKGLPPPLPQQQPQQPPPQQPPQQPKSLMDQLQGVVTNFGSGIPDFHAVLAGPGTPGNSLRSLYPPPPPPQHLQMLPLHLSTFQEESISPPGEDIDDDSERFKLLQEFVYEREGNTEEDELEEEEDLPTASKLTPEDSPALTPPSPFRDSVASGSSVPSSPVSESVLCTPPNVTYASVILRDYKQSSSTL

[10] = target: Metabotropic glutamate receptor 7 (Rattus norvegicus, UniProt P35400); assay: Modulation of the Metabotropic Glutamate Receptor mGluR4: Selectivity at mGluR7. [Related pubchem assays (depositor defined):AID2437, AID2807]; type: functional
Metabotropic glutamate receptor 7, sequence (P35400 whole entry): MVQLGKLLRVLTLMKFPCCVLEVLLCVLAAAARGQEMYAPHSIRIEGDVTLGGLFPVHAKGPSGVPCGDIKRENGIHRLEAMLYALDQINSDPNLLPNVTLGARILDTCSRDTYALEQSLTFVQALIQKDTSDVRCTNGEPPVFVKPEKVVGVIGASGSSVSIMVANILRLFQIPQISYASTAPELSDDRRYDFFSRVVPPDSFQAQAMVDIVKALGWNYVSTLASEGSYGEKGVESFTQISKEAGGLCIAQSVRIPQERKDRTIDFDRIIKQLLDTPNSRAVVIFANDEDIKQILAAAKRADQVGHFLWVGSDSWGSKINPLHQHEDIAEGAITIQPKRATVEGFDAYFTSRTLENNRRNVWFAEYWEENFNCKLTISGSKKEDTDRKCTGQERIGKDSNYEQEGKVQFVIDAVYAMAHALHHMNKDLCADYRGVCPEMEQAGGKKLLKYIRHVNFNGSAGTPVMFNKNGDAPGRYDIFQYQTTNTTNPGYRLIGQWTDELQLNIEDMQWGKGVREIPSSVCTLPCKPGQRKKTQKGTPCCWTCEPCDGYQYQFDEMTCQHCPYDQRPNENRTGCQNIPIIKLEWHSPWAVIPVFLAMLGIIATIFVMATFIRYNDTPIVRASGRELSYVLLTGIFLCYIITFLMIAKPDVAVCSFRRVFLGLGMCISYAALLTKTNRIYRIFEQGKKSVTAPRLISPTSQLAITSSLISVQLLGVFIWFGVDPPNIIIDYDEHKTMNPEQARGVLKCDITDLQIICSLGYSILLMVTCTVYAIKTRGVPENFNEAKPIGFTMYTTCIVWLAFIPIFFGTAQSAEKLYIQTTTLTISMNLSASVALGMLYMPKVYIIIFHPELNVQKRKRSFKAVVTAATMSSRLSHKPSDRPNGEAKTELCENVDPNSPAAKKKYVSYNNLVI

T1 sequence (P98170 whole entry): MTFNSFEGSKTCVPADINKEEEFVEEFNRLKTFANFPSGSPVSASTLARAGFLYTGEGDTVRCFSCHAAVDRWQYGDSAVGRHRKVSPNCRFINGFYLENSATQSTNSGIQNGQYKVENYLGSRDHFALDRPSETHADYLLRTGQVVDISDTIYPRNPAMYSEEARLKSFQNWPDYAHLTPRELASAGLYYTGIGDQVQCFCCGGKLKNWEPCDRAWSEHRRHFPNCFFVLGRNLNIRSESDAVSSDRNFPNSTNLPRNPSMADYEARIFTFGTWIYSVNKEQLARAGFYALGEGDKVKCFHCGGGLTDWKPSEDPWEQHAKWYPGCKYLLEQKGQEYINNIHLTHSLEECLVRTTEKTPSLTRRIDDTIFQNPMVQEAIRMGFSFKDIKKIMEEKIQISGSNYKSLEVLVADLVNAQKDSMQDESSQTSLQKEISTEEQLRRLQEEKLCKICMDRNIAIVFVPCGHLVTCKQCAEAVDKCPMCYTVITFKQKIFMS

In the case of `COc1ccc(/C=N/Nc2nc(N3CCCC3)nc(N3CCCC3)n2)cc1`, the IC50 [1] is reported as > 100 µM (not active) and the IC50 [2] is reported as > 100 µM (inactive).
In the case of `CC(C)N(CCNC(=O)c1ccc(CNS(=O)(=O)c2ccc(Br)cc2)cc1)Cc1ccc(Br)cc1`, the IC50 [3] is reported as > 32 µM (inactive), the IC50 [4] is reported as 2.03 µM (active) and the IC50 [5] is reported as > 20 µM (inactive). For the same molecule, the IC50 (Mu-type opioid receptor) was > 32 µM (inactive).
In the case of `Clc1ccc(CSc2nnc(-c3ccc(Br)cc3)n2Cc2ccco2)cc1Cl`, the EC50 [6] is reported as 8 µM (active).
In the case of `COc1ccc(CNC(=O)C(C)OC(=O)c2c(C)nn(Cc3ccccc3)c2Cl)cc1` (stereo unspecified), the EC50 [7] is reported as > 50 µM (inactive).
With `COc1cc(NC(=O)c2ccccn2)ccc1Cl` the EC50 [8] was 1.04 µM (inactive), the EC50 [9] was 0.943 µM (inactive) and the “Activity EC50” value [10] was 313 µM.
